# In the supplement of paper PMC11208160:
# Test: recombinant barcode read abundance after kanamycin selection (control-corrected) (log10(CPM+1)); higher = more efficient recombination; sequences stand for … in AGTGCAGAGAAAATCGGCCAGTTTTCTCTGCCTGCAGTCCGCATGCCGT…AGATTTATGCAGCGGACTGCCTTTCTCCCAAAGTGATAAACCGGACAGTATCATGGACCGGTTTTCCCGGTAATCCGTATTTGCAAGGTTGGTTTCACT; site = the 11-nt target
# Procedure, shortened: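 Oligos holding a promoter, target, barcode and the J23119-driven first 104 bases of the bridge RNA were Gibson-cloned into a vector that supplied the other 73 bp plus a T7-inducible recombinase. This library was co-electroporated with a donor plasmid into E. coli. Two replicates went on chloramphenicol/ampicillin LB agar (control) and two on chloramphenicol/ampicillin/kanamycin with 0.1 mM IPTG. Recombination efficiency is read from averaged, control-corrected barcode counts per million at recombinant junctions, reported as log10(CPM+1).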
# 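Note: IS621 recombinase and bridge RNA in Escherichia coli cells.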
row,Sequence,recombinant barcode read abundance (log10)
1,TGTAGAGCTTGGGTTCTAACCTGTTGCAG (site TGTTGAGCTCT),0.0298
2,TGTAGCACTTGGGTTCTAACCTGTTGCAC (site TGTAGCACTGT),0.0233
3,TGTAGCACTTGGGTTCTAACCTGTTGCAC (site TGTCGCACTCT),0.159
4,TGTAGTCCTTGGGTTCTAACCTGTTGCAT (site TGTAGTCCTAA),0.232
5,TGTAGTCCTTGGGTTCTAACCTGTTGCAT (site TGTAGTCCTAC),0.0299
6,TGTAGTCCTTGGGTTCTAACCTGTTGCAT (site TGTAGTCCTAG),0.156
7,TGTAGTCCTTGGGTTCTAACCTGTTGCAT (site TGTAGTCCTAT),0.097
8,TGTAGTCCTTGGGTTCTAACCTGTTGCCT (site TGTAGTCCTAA),0.0423
9,TGTAGTCCTTGGGTTCTAACCTGTTGCCT (site TGTAGTCCTAC),0.0647
10,TGTAGTCCTTGGGTTCTAACCTGTTGCCT (site TGTAGTCCTAG),0.26
11,TGTAGTCCTTGGGTTCTAACCTGTTGCCT (site TGTAGTCCTAT),0.348
12,TGTATCGCTTGGGTTCTAACCTGTTGCCT (site TGTATCGCTAG),0.405
13,TGTATCGCTTGGGTTCTAACCTGTTGCCT (site TGTCCCGCTAG),0.149
14,TGTCAAACTTGGGTTCTAACCTGTTGCCT (site TGTCAAACTAG),0.298
15,TGTCAAACTTGGGTTCTAACCTGTTGCCT (site TGTCAACCTAG),0.176
16,TGTCAAACTTGGGTTCTAACCTGTTGCCT (site TGTCAAGCTAG),0.145
17,TGTCAAACTTGGGTTCTAACCTGTTGCCT (site TGTCAATCTAG),0.0654
18,TGTCAATCTTGGGTTCTAACCTGTTGCCT (site TGTCAAACTAG),0.243
19,TGTCAATCTTGGGTTCTAACCTGTTGCCT (site TGTCAACCTAG),0.061
20,TGTCAATCTTGGGTTCTAACCTGTTGCCT (site TGTCAAGCTAG),0.0211
21,TGTCAATCTTGGGTTCTAACCTGTTGCCT (site TGTCAATCTAG),0.0947
22,TGTCAATCTTGGGTTCTAACCTGTTGCGT (site TGTCAATCTAC),0.543

row,Sequence,recombinant barcode read abundance (log10)
1,TGTCAATCTTGGGTTCTAACCTGTTGCGT (site TGTCGATCTAG),0.152
2,TGTCAGGCTTGGGTTCTAACCTGTTGCCT (site TGCTAGGCTAG),0.187
3,TGTCAGGCTTGGGTTCTAACCTGTTGCCT (site TGTCAGGCTAG),0.0749
4,TGTCGCACTTGGGTTCTAACCTGTTGCAG (site TGTAGCACTGT),0.123
5,TGTCGCACTTGGGTTCTAACCTGTTGCAG (site TGTCGCACTCT),0.313
6,TGTCTACCTTGGGTTCTAACCTGTTGCCT (site TGTCTACCTAG),0.191
7,TGTCTACCTTGGGTTCTAACCTGTTGCCT (site TGTCTATCTAG),0.653
8,TGTCTAGCTTGGGTTCTAACCTGTTGCCT (site TGACTAGCTAG),0.486
9,TGTCTAGCTTGGGTTCTAACCTGTTGCCT (site TGCCTAGCTAG),0.0303
10,TGTCTAGCTTGGGTTCTAACCTGTTGCCT (site TGGCTAGCTAG),0.0711
11,TGTCTAGCTTGGGTTCTAACCTGTTGCCT (site TGTCTAGCTAG),0.038
12,TGTCTCCCTTGGGTTCTAACCTGTTGCCG (site TGTCTCCCTCG),0.261
13,TGTCTCCCTTGGGTTCTAACCTGTTGCCG (site TGTGTCCCTCG),0.108
14,TGTCTGCCTTGGGTTCTAACCTGTTGCCT (site AGTCTGCCTAG),0.104
15,TGTCTGCCTTGGGTTCTAACCTGTTGCCT (site CGTCTGCCTAG),0.122
16,TGTCTGCCTTGGGTTCTAACCTGTTGCCT (site GGTCTGCCTAG),0.0534
17,TGTCTGCCTTGGGTTCTAACCTGTTGCCT (site TGTCTGCCTAG),0.295
18,TGTGAGTCTTGGGTTCTAACCTGTTGCAT (site TGTGAGTCTAA),0.107
19,TGTGAGTCTTGGGTTCTAACCTGTTGCAT (site TGTGAGTCTAC),0.856
20,TGTGAGTCTTGGGTTCTAACCTGTTGCAT (site TGTGAGTCTAG),0.149
21,TGTGAGTCTTGGGTTCTAACCTGTTGCAT (site TGTGAGTCTAT),1.7
22,TGTGATCCTTGGGTTCTAACCTGTTGCAT (site TGAGATTCTAT),0.0352

row,Sequence,recombinant barcode read abundance (log10)
1,TGTGATCCTTGGGTTCTAACCTGTTGCAT (site TGTGATCCTAT),1.4
2,TGTGCAACTTGGGTTCTAACCTGTTGCTG (site ATGCTTGCTTG),0.353
3,TGTGCAACTTGGGTTCTAACCTGTTGCTG (site TGTGCAACTCA),0.284
4,TGTGGAGCTTGGGTTCTAACCTGTTGCCG (site TGTAGAGCTCG),0.448
5,TGTGGAGCTTGGGTTCTAACCTGTTGCCG (site TGTCGAGCTCG),0.469
6,TGTGGAGCTTGGGTTCTAACCTGTTGCCG (site TGTGGAGCTCG),1.24
7,TGTGGAGCTTGGGTTCTAACCTGTTGCCG (site TGTTGAGCTCG),0.00933
8,TGTGTCCCTTGGGTTCTAACCTGTTGCCT (site TGAGTCCCTAG),0.159
9,TGTGTCCCTTGGGTTCTAACCTGTTGCCT (site TGCGTCCCTAG),0.139
10,TGTGTCCCTTGGGTTCTAACCTGTTGCCT (site TGGGTCCCTAG),0.123
11,TGTGTCCCTTGGGTTCTAACCTGTTGCCT (site TGTGTCCCTAG),1.14
12,TGTTAGTCTTGGGTTCTAACCTGTTGCCG (site TGTTAGACTAG),0.0136
13,TGTTAGTCTTGGGTTCTAACCTGTTGCCG (site TGTTAGTCTCG),0.0597
14,TGTTCAGCTTGGGTTCTAACCTGTTGCCT (site CACAGGCCTCT),0.0146
15,TGTTCAGCTTGGGTTCTAACCTGTTGCCT (site TGTTCAGCTAG),0.066
16,TGTTCTACTTGGGTTCTAACCTGTTGCTT (site TGATCTACTAA),0.0326
17,TGTTCTACTTGGGTTCTAACCTGTTGCTT (site TGCTCTACTAA),0.246
18,TGTTCTACTTGGGTTCTAACCTGTTGCTT (site TGGTCTACTAA),0.0191
19,TGTTCTACTTGGGTTCTAACCTGTTGCTT (site TGTTCTACTAA),0.0296
20,TGTTGAGCTTGGGTTCTAACCTGTTGCAG (site TGTAGAGCTCT),0.148
21,TGTTGAGCTTGGGTTCTAACCTGTTGCAG (site TGTTGAGCTCT),0.468
22,TGTTGGACTTGGGTTCTAACCTGTTGCTT (site TCTTAGACTAA),0.0262

row,Sequence,recombinant barcode read abundance (log10)
1,TGTTGGACTTGGGTTCTAACCTGTTGCTT (site TGTTGGACTAA),0.16
2,TGTTGGTCTTGGGTTCTAACCTGTTGCTT (site GAACTCCCTCC),0.0579
3,TGTTGGTCTTGGGTTCTAACCTGTTGCTT (site TGTTGGTCTAA),0.0212
4,TGTTGTCCTTGGGTTCTAACCTGTTGCTG (site AACATAACTAC),0.141
5,TGTTGTCCTTGGGTTCTAACCTGTTGCTG (site TGTTGTCCTCA),0.0482
6,TGTTGTGCTTGGGTTCTAACCTGTTGCCT (site TGGCGTGCTAG),0.101
7,TGTTGTGCTTGGGTTCTAACCTGTTGCCT (site TGTTGTGCTAG),0.109
8,TTAAATCCTTGGGTTCTAACCTGTTGCCT (site ATAAATCCTAG),0.143
9,TTAAATCCTTGGGTTCTAACCTGTTGCCT (site CTAAATCCTAG),0.183
10,TTAAATCCTTGGGTTCTAACCTGTTGCCT (site GTAAATCCTAG),0.249
11,TTAAATCCTTGGGTTCTAACCTGTTGCCT (site TTAAATCCTAG),0.219
12,TTAACGGCTTGGGTTCTAACCTGTTGCCT (site TTAACGGCTAG),0.556
13,TTAACGGCTTGGGTTCTAACCTGTTGCCT (site TTCACGGCTAG),0.186
14,TTACAGGCTTGGGTTCTAACCTGTTGCCG (site GGCATCCCTTA),0.0374
15,TTACAGGCTTGGGTTCTAACCTGTTGCCG (site TTACAGGCTCG),1.13
16,TTACCAACTTGGGTTCTAACCTGTTGCCT (site TTACCAACTAG),1.61
17,TTACCAACTTGGGTTCTAACCTGTTGCCT (site TTACCCACTAG),0.629
18,TTACCAACTTGGGTTCTAACCTGTTGCCT (site TTACCGACTAG),0.0912
19,TTACCAACTTGGGTTCTAACCTGTTGCCT (site TTACCTACTAG),0.12
20,TTACCGACTTGGGTTCTAACCTGTTGCCT (site TTACCAACTAG),1.23
